In the supplement of paper PMC11451515:

Key:
Settings in all cases: 48 h
[1] = tested on: NOMO1; assay: cell viability relative to DMSO control; higher = less cytotoxic
Outline: (§1)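 Viability was expressed as a per-plate percentage of DMSO wells, with cell-free wells as background. Leukemia cells (NOMO1 or SEM at 500 cells/well, P12-Ichikawa at 1000 cells/well) were adapted for at least four passages in each medium and seeded in 1536-well plates (5 μl). Library compounds in DMSO were pin-dosed over an 11-point threefold series from 47 μM to 0.79 nM, and CellTiter-Glo One luminescence was read after 48 h at 37°C.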

[2] = tested on: P12-Ichikawa; assay: as above
Outline: as §1

[3] = tested on: SEM cells; assay: as above
Outline: as §1

[4] = tested on: NOMO1; assay: AUC of viability dose-response curve (% viability x log10 dose units); higher = less sensitive
Outline: (§2)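 Viability of medium-adapted leukemia cells was measured by CellTiter-Glo One luminescence after 48 h at 37°C with library compounds in DMSO. Doses were 11 threefold steps from 47 μM to 0.79 nM, in 1536-well plates at 500 or 1000 cells/well. Signals were normalised per plate to DMSO and cell-free wells and fitted with a four-parameter log-logistic model on log10 dose. Area under the curve was integrated by trapezoidal rule, with curves exceeding full viability scaled and failed quality-control curves removed.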

[5] = tested on: P12-Ichikawa; assay: as above
Outline: as §2

[6] = tested on: SEM cells; assay: as above
Outline: as §2

CN1CCCN(C(=O)c2cccc(-c3ccc(/C=C4/C(=O)Nc5ccc(Cl)cc54)o3)c2)CC1
cell viability [%]
Settings	[1]	[2]	[3]
HPLM + 10% dialyzed FBS, 0.000781 µM	134	106	98.9
HPLM + 10% dialyzed FBS, 0.00234 µM	118	119	106
HPLM + 10% dialyzed FBS, 0.00702 µM	120	114	109
HPLM + 10% dialyzed FBS, 0.0211 µM	124	116	101
HPLM + 10% dialyzed FBS, 0.0632 µM	112	114	118
HPLM + 10% dialyzed FBS, 0.19 µM	102	120	107
HPLM + 10% dialyzed FBS, 0.569 µM	109	106	84.1
HPLM + 10% dialyzed FBS, 1.71 µM	103	92.3	71.7
HPLM + 10% dialyzed FBS, 5.12 µM	91.8	76.9	48.4
HPLM + 10% dialyzed FBS, 15.4 µM	96.7	76.9	22.8
HPLM + 10% dialyzed FBS, 46.1 µM	66.1	59.2	2.97
RPMI 5 mM glucose + 10% FBS, 0.000781 µM	124	117	90.2
RPMI 5 mM glucose + 10% FBS, 0.00234 µM	107	108	117
RPMI 5 mM glucose + 10% FBS, 0.00702 µM	108	111	106
RPMI 5 mM glucose + 10% FBS, 0.0211 µM	110	117	119
RPMI 5 mM glucose + 10% FBS, 0.0632 µM	98.3	115	127
RPMI 5 mM glucose + 10% FBS, 0.19 µM	109	110	112
RPMI 5 mM glucose + 10% FBS, 0.569 µM	94.4	102	77.2
RPMI 5 mM glucose + 10% FBS, 1.71 µM	96.1	85.8	48
RPMI 5 mM glucose + 10% FBS, 5.12 µM	99.4	54.7	16.7
RPMI 5 mM glucose + 10% FBS, 15.4 µM	85.8	20.1	5.69
RPMI 5 mM glucose + 10% FBS, 46.1 µM	47.4	3.03	3.36
RPMI 5 mM glucose + 10% dialyzed FBS, 0.000781 µM	111	103	110
RPMI 5 mM glucose + 10% dialyzed FBS, 0.00234 µM	112	107	108
RPMI 5 mM glucose + 10% dialyzed FBS, 0.00702 µM	109	117	115
RPMI 5 mM glucose + 10% dialyzed FBS, 0.0211 µM	107	114	106
RPMI 5 mM glucose + 10% dialyzed FBS, 0.0632 µM	111	113	114
RPMI 5 mM glucose + 10% dialyzed FBS, 0.19 µM	109	108	115
RPMI 5 mM glucose + 10% dialyzed FBS, 0.569 µM	104	111	75.7
RPMI 5 mM glucose + 10% dialyzed FBS, 1.71 µM	96.2	90.7	62.9
RPMI 5 mM glucose + 10% dialyzed FBS, 5.12 µM	85.6	64.3	20.4
RPMI 5 mM glucose + 10% dialyzed FBS, 15.4 µM	94.5	53	5.5
RPMI 5 mM glucose + 10% dialyzed FBS, 46.1 µM	60	5.68	3.68

AUC of viability dose-response curve
Settings	[4]	[5]	[6]
HPLM + 10% dialyzed FBS	399	419	362
RPMI 5 mM glucose + 10% FBS	446	372	324
RPMI 5 mM glucose + 10% dialyzed FBS	436	396	332
